Source: patent US20250082771A1, “DOSAGE REGIMEN OF AN ANTI-CDH6 ANTIBODY-DRUG CONJUGATE” (DAIICHI SANKYO COMPANY, LIMITED, priority 2022, published 2025)

Columns and labels:
Format in all cases: in vivo, human
RCC and OVC subjects [1] = assay: Phase 1 dose escalation part: safety and tolerability (TEAEs, DLT, RDE)
Protocol: (§1) The dose escalation part of the Phase 1 study was a multicenter, open-label, multiple-dose, first-in-human study of DS-6000a, which enrolled subjects in the United States (see clinicaltrials.gov identifier NCT 04707248). DS-6000a was administered intravenously every 3 weeks. In the dose escalation part, RCC and OVC subjects were enrolled and dose-limiting toxicity (DLT) was assessed during Cycle 1.
The primary objective of the dose escalation part was to investigate the safety and tolerability and determine the maximum-tolerated dose (MTD) and/or recommended dose for expansion (RDE).
(§2) Patient assessments included echocardiogram or multigated acquisition scan, 12-lead electrocardiogram, AEs, PK, human anti-human antibodies, biomarkers, and tumor assessments at prespecified visits. The demographic and baseline characteristics of the patient enrolled in this dose escalation part of the Phase 1 study are shown in FIG. 2.
(§3) For this dose escalation part of the Phase 1 study, Bayesian optimal interval (BOIN) design was used to estimate the MTD. Accelerated titration, treat a single subject at a dose level, was performed until any DLT or ≥Grade 2 AE possibly related to DS-6000a (excluding infusion-related reactions) is observed during Cycle 1. Objective response rate (ORR), clinical benefit rate (CBR), and disease control rate (DCR) were summarized with 95% confidence intervals (CI) using the Clopper-Pearson method; duration of response (DOR) and progression-free survival (PFS) were summarized using the Kaplan-Meier method. Safety endpoints, PK parameters and plasma anti-drug antibodies were summarized using descriptive statistics.

RCC and OVC subjects [2] = assay: Phase 1 dose escalation part: tumor response per RECIST V1.1
Protocol: as §1, §2, §3

CA-125 [3] = assay: Phase 1 dose escalation part: CA-125 response (GCIG criteria)
Excerpt: (§4) Secondary objectives included characterizing the pharmacokinetic (PK) properties of DS-6000a, total anti-CDH6 antibody, drug component and assessing the immunogenicity. Exploratory objectives included evaluating biomarker that correlate with efficacy and disease assessment in OVC using Gynecologic Cancer Intergroup (GCIG) criteria.

RCC and OVC subjects [4] = assay: Phase 1 dose escalation and expansion parts as of new cut-off date: safety and tolerability
Protocol: (§5) The dose expansion part of the Phase 1 study was a multicenter, open-label, multiple-dose, first-in-human study of DS-6000a, which enrolled subjects in the United States (see clinicaltrials.gov identifier NCT 04707248). DS-6000a was administered intravenously every 3 weeks. The dose expansion part included administering to RCC and OVC subjects at RDEs. Initially, dose of 8.0 mg/kg was expanded, subsequently, the 6.4, 5.6 and 4.8 mg/kg doses were added as RDEs (FIG. 12).
The primary objective of the dose expansion part was to evaluate the safety, tolerability, and efficacy at the RDEs.
Patient assessments included echocardiogram or multigated acquisition scan, 12-lead electrocardiogram, AEs, PK, human anti-human antibodies, biomarkers, and tumor assessments at prespecified visits.
(§6) Objective response rate (ORR), clinical benefit rate (CBR), and disease control rate (DCR) were summarized with 95% confidence intervals (CI) using the Clopper-Pearson method; duration of response (DOR) and progression-free survival (PFS) were summarized using the Kaplan-Meier method. Safety endpoints, PK parameters and plasma anti-drug antibodies were summarized using descriptive statistics.
(§7) After the initial data-cut, additional patients were enrolled in Phase 1 (both escalation and expansion), bringing the overall number of participants to sixty-seven (N=67). The demographic and baseline characteristics of the patient enrolled in dose escalation and expansion parts of the Phase 1 study as of new cut-off date are shown in FIG. 13. Subjects ranged in age from 34 to 83 years with a median age of 63 years. A median of 4 prior lines of therapy was administered. The prior lines of therapy comprise a platinum-based chemotherapeutic, a chemotherapeutic, a PARP inhibitor, an immune checkpoint inhibitor, an angiogenic inhibitor and a VEGFR-TKI. The subjects were 25.4% RCC, 74.6% OVC and 64.2% had Eastern Cooperative Oncology Group performance status (ECOG PS) of 1.
Subjects had received DS-6000a as monotherapy with a median treatment duration of 15.4 weeks (range 3.0 to 93.9 weeks). The number of patients in the dose escalation and expansion parts of the Phase 1 study as of new cut-off date with TEAE, which occurred in […] of patients, regardless of causality, is shown in FIG. 14.

OVC subjects = assay: Phase 1 dose escalation and expansion parts as of new cut-off date: tumor response, ORR and PFS
Protocol: as §5, §6, §7
One confirmed CR and 14 confirmed PR were observed among 44 evaluable OVC subjects at doses ranging from 1.6 to 9.6 mg/kg. SD was reported for 24 subjects (FIG. 17).

CA-125 [5] = assay: Phase 1 dose escalation and expansion parts as of new cut-off date: CA-125 response
Excerpt: as §4

[6] = dose escalation part, among 24 efficacy evaluable patients
[7] = dose escalation and expansion parts, new cut-off date, N=67
[8] = among 44 evaluable OVC subjects, 1.6 to 9.6 mg/kg, new cut-off date

DS-6000a: anti-CDH6 antibody (SEQ ID NO: 69 positions 20-471; SEQ ID NO: 61 positions 21-233) bound via thioether bond to drug linker; DAR 7 to 8
TEAE diarrhoea (RCC and OVC subjects [1]; N=30, regardless of causality): 20.0% | TEAE fatigue (RCC and OVC subjects [1]; N=30, regardless of causality): 63.3% | TEAE nausea (RCC and OVC subjects [1]; N=30, regardless of causality): 60.0% | TEAE neutrophil count decreased (RCC and OVC subjects [1]; N=30, regardless of causality): 23.3% | TEAE vomiting (RCC and OVC subjects [1]; N=30, regardless of causality): 46.7% | tolerability (RCC and OVC subjects [1]; as of data cut off): generally well tolerated | time stayed in treatment, one patient with SD (RCC and OVC subjects [2]; dose escalation part, 8.0 mg/kg): more than 180 days | tumor shrinkage in target lesion (RCC and OVC subjects [2]; dose escalation part, 3.2, 4.8, 6.4, 8.0 and 9.6 mg/kg dose levels): Tumor shrinkages were observed | durability of tumor responses (RCC and OVC subjects [2]; dose escalation part, FIG. 6): durable | PRs based on RECIST V1.1 (RCC and OVC subjects [2]; dose escalation part, RCC, among 24 efficacy evaluable patients): one | best percent change in sum of longest dimensions from baseline (tumor reduction) (RCC and OVC subjects [2]; dose escalation part, a patient in the 9.6 mg/kg dosing group): 68.8% | Non-CR/Non-PDs (RCC and OVC subjects [2]; [6]): 2 | PRs (including single point PRs, not yet confirmed responses) based on RECIST V1.1 (RCC and OVC subjects [2]; [6]): 6 | stable diseases (SDs) (RCC and OVC subjects [2]; [6]): 12 | PRs based on RECIST V1.1 (RCC and OVC subjects [2]; dose escalation part, platinum-resistant OVC, among 24 efficacy evaluable patients): five | maximum decrease in tumor size (RCC and OVC subjects [2]; one clear cell RCC patient, 3 prior therapies including ICI and VEGFR-TKI, 3.2 mg/kg, 51.4 weeks following initiation of treatment): 64.3% | maximum decrease in tumor size (RCC and OVC subjects [2]; one platinum-resistant OVC patient, 3 prior therapies including bevacizumab and PARP inhibitor, 6.4 mg/kg, 40.4 weeks following initiation of treatment): 35.7% | durability of CA-125 responses (CA-125 [3]; FIG. 8): durable | patients showed CA-125 responder (CA-125 [3]; among 17 efficacy evaluable OVC patients, at least 50% reduction in CA-125 from baseline, confirmed and maintained at least 28 days): 8 patients | CA-125 response rates by dose level (CA-125 [3]; dose level of 4.8 to 9.6 mg/kg): Higher CA-125 response rates | fatal cases (RCC and OVC subjects [4]; 8.0 mg/kg): 3 | tolerability (RCC and OVC subjects [4]; 8.0 mg/kg, frequent dose reduction/interruption compared to lower doses): not tolerated | doses at which well tolerated (RCC and OVC subjects [4]; dose escalation and expansion parts, new cut-off date): up to 6.4 mg/kg | most frequently reported Grade 23 events (RCC and OVC subjects [4]; [7]): hematological events | severity of the majority of the gastrointestinal events (RCC and OVC subjects [4]; [7]): Grade 1 or 2 | most frequently reported TEAEs (RCC and OVC subjects [4]; dose escalation and expansion parts, new cut-off date, N=67, monotherapy): gastrointestinal events (nausea, vomiting and diarrhea), fatigue, decreased appetite and hematological events (anaemia, neutrophil count decreased and platelet count decreased) | preliminary efficacy signals by dose (OVC subjects; 4.8 and 6.4 mg/kg compared to 8.0 mg/kg, small sample size): better preliminary efficacy signals | median PFS (OVC subjects; OVC subjects, 3.2 mg/kg): 13.9 months | median PFS (OVC subjects; OVC subjects, 4.8 mg/kg): 7.9 months | median PFS (OVC subjects; OVC subjects, 6.4 mg/kg): 5.8 months | median PFS (OVC subjects; OVC subjects, 8.0 mg/kg): 5.6 months | median PFS (OVC subjects; OVC subjects, doses ranging from 1.6 to 9.6 mg/kg): 5.8 months | dose-effect on efficacy (OVC subjects; OVC subjects, higher dosing group, FIG. 16): consistent and pronounced reduction in tumor size | ORR compared to current standard of care (single-agent chemotherapies) in platinum resistant ovarian cancer (OVC subjects; OVC subjects, new cut-off date): Higher ORR | PFS compared to current standard of care (single-agent chemotherapies) in platinum resistant ovarian cancer (OVC subjects; OVC subjects, new cut-off date): Longer PFS | ORR (OVC subjects; among 41 evaluable OVC subjects with measurable disease at baseline, 1.6 to 9.6 mg/kg): 36.6% | confirmed CR (OVC subjects; [8]): One | confirmed PR (OVC subjects; [8]): 14 | CA-125 response rates among dose levels (CA-125 [5]; OVC patients): High CA-125 response rates | CA-125 reductions (CA-125 [5]; OVC subjects, FIG. 18): deep and durable | patients showed CA-125 responder (CA-125 [5]; among 28 efficacy evaluable OVC patients, at least 50% reduction in CA-125 from baseline, confirmed and maintained at least 28 days): 15 patients
